The text below walks through data of ChEMBL document CHEMBL5113485, “Distal kinetic deuterium isotope effect: Phenyl ring deuteration attenuates N-demethylation of Lu AF35700” (Bioorg Med Chem Lett, 2022).

The target in data set [1] is T1, Cytochrome P450 2C19 (Homo sapiens, UniProt P33261). The data set is described as follows: Drug metabolism assessed as recombinant human liver CYP2C19-mediated formation of d5-desmethyl-zicronapine at 10 uM measured after 15 to 180 mins in presence of zicronapine by LC-MS/MS analysis. Type of data set: ADME. To be noted: recombinant enzyme, time 15-180 min.
The target of data set [2] is T2, Cytochrome P450 3A4 (Homo sapiens, UniProt P08684). Nature of the data set: Drug metabolism assessed as recombinant human liver CYP3A4-mediated formation of d5-desmethyl-zicronapine at 10 uM measured after 15 to 180 mins in presence of zicronapine by LC-MS/MS analysis. Type of data set: ADME. To be noted: recombinant enzyme, time 15-180 min.
In data set [3] the target is 5-hydroxytryptamine receptor 1A (Homo sapiens, UniProt P08908). Nature of the data set: Displacement of [3H]8-OH-DPAT from recombinant human 5-HT1A receptor measured after 60 mins by scintillation counting analysis.
Data set [4] is described as follows: Drug metabolism in human liver microsomes assessed as formation of desmethyl-zicronapine at 10 uM measured after 15 to 180 mins in presence of NADPH regenerating system by LC-MS/MS analysis. Type of data set: ADME, Microsome. Conditions: time 15-180 min.
The nature of data set [5]: Drug metabolism in human liver microsomes assessed as formation of d5-desmethyl-zicronapine at 10 uM measured after 15 to 180 mins in presence of NADPH regenerating system by LC-MS/MS analysis. Type of data set: ADME, Microsome. Conditions: time 15-180 min. A general note: Microsomes from liver hold many membrane-bound enzymes, among them those of drug oxidation.
In data set [6] the target is 5-hydroxytryptamine receptor 1B (Rattus norvegicus, UniProt P28564). The data set is described as follows: Displacement of [125I]CYP from rat brain 5HT1B receptor measured after 120 mins by scintillation counting analysis.
The target of data set [7] is 5-hydroxytryptamine receptor 2B (Homo sapiens, UniProt P41595). The data set is described as follows: Displacement of [125I](+/-)DOI from recombinant human 5-HT2B receptor measured after 60 mins by scintillation counting analysis. On the technique in general: Displacement assays read how much labelled ligand stays bound in the presence of the test substance.
In data set [8] the target is 5-hydroxytryptamine receptor 2C (Homo sapiens, UniProt P28335). The data set is described as follows: Displacement of [125I](+/-)DOI from recombinant human 5-HT2C receptor measured after 60 mins by scintillation counting analysis.
For data set [9], the target named is 5-hydroxytryptamine receptor 7 (Homo sapiens, UniProt P34969). Nature of the data set: Displacement of [3H]LSD from recombinant human 5-HT7 receptor measured after 120 mins by scintillation counting analysis.
A further data set addresses D(3) dopamine receptor (Homo sapiens, UniProt P35462). Nature of the data set: Displacement of [3H]methyl-spiperone from recombinant human D3 receptor measured after 60 mins by scintillation counting analysis.
For another data set, the target named is D(4) dopamine receptor (Homo sapiens, UniProt P21917). The data set is described as follows: Displacement of [3H]methyl-spiperone from recombinant human D4.4 receptor measured after 60 mins by scintillation counting analysis.
The target in a further data set is D(1B) dopamine receptor (Homo sapiens, UniProt P21918). The data set is described as follows: Displacement of [3H]SCH 23390 from recombinant human D5 receptor measured after 60 mins by scintillation counting analysis.
Data set [10] has as its target Alpha-1A adrenergic receptor (Homo sapiens, UniProt P35348). The data set is described as follows: Displacement of [3H]prazosin from recombinant human alpha1A receptor measured after 60 mins by scintillation counting analysis.
Data set [11] deals with Alpha-1B adrenergic receptor (Homo sapiens, UniProt P35368). Nature of the data set: Displacement of [3H]prazosin from recombinant human alpha1B receptor measured after 60 mins by scintillation counting analysis.
Data set [12] deals with Alpha-1D adrenergic receptor (Homo sapiens, UniProt P25100). The data set is described as follows: Displacement of [3H]prazosin from recombinant human alpha1D receptor measured after 60 mins by scintillation counting analysis.
The target of data set [13] is Alpha-2A adrenergic receptor (Homo sapiens, UniProt P08913). The data set is described as follows: Displacement of [3H]RX 821002 from recombinant human alpha2A receptor measured after 60 mins by scintillation counting analysis.
Data set [14] has as its target Alpha-2B adrenergic receptor (Homo sapiens, UniProt P18089). The data set is described as follows: Displacement of [3H]RX 821002 from recombinant human alpha2B receptor measured after 60 mins by scintillation counting analysis.
Data set [15] has as its target Alpha-2C adrenergic receptor (Homo sapiens, UniProt P18825). Nature of the data set: Displacement of [3H]RX 821002 from recombinant human alpha2C receptor measured after 60 mins by scintillation counting analysis.
Data set [16] has as its target Sodium-dependent dopamine transporter (Homo sapiens, UniProt Q01959). Nature of the data set: Displacement of [3H]BTCP from recombinant human DAT measured after 120 mins by scintillation counting analysis.
The target of another data set is Histamine H1 receptor (Homo sapiens, UniProt P35367). The data set is described as follows: Displacement of [3H]pyrilamine from recombinant human H1 receptor measured after 60 mins by scintillation counting analysis.
Data set [17] has as its target 5-hydroxytryptamine receptor 2A (Homo sapiens, UniProt P28223). The data set is described as follows: Displacement of [125I](+/-)DOI from recombinant human 5-HT2A receptor measured after 60 mins by scintillation counting analysis.
The target of data set [18] is 5-hydroxytryptamine receptor 6 (Homo sapiens, UniProt P50406). The data set is described as follows: Displacement of [3H]LSD from recombinant human 5-HT6 receptor measured after 120 mins by scintillation counting analysis.
The next data set addresses D(1A) dopamine receptor (Homo sapiens, UniProt P21728). The data set is described as follows: Displacement of [3H]SCH 23390 from recombinant human D1 receptor measured after 60 mins by scintillation counting analysis.
The next data set has as its target D(2) dopamine receptor (Homo sapiens, UniProt P14416). The data set is described as follows: Displacement of [3H]7-OH-DPAT from recombinant human D2S receptor measured after 60 mins by scintillation counting analysis.
In data set [19] the target is T1, Cytochrome P450 2C19. Nature of the data set: Drug metabolism assessed as recombinant human liver CYP2C19-mediated formation of desmethyl-zicronapine at 10 uM measured after 15 to 180 mins in presence of d5-zicronapine by LC-MS/MS analysis. To be noted: recombinant enzyme, time 15-180 min. In kind it is ADME.
For data set [20], the target named is T1, Cytochrome P450 2C19. Nature of the data set: Drug metabolism assessed as recombinant human liver CYP2C19-mediated formation of desmethyl-zicronapine at 10 uM measured after 15 to 180 mins in presence of Lu AF35700 by LC-MS/MS analysis. Conditions: recombinant enzyme, time 15-180 min. Type of data set: ADME.
Data set [21] concerns the target T1, Cytochrome P450 2C19. Nature of the data set: Drug metabolism assessed as recombinant human liver CYP2C19-mediated formation of d5-desmethyl-zicronapine at 10 uM measured after 15 to 180 mins in presence of Lu AF35700 by LC-MS/MS analysis. Conditions: recombinant enzyme, time 15-180 min. In kind it is ADME.
Data set [22] concerns the target T2, Cytochrome P450 3A4. Nature of the data set: Drug metabolism assessed as recombinant human liver CYP3A4-mediated formation of desmethyl-zicronapine at 10 uM measured after 15 to 180 mins in presence of d5-zicronapine by LC-MS/MS analysis. In kind it is ADME. To be noted: recombinant enzyme, time 15-180 min.
Data set [23] addresses T2, Cytochrome P450 3A4. The data set is described as follows: Drug metabolism assessed as recombinant human liver CYP3A4-mediated formation of desmethyl-zicronapine at 10 uM measured after 15 to 180 mins in presence of Lu AF35700 by LC-MS/MS analysis. Conditions: recombinant enzyme, time 15-180 min. Type of data set: ADME.
The target of data set [24] is T2, Cytochrome P450 3A4. Nature of the data set: Drug metabolism assessed as recombinant human liver CYP3A4-mediated formation of d5-desmethyl-zicronapine at 10 uM measured after 15 to 180 mins in presence of Lu AF35700 by LC-MS/MS analysis. In kind it is ADME. To be noted: recombinant enzyme, time 15-180 min.

T2 sequence (P08684 whole entry): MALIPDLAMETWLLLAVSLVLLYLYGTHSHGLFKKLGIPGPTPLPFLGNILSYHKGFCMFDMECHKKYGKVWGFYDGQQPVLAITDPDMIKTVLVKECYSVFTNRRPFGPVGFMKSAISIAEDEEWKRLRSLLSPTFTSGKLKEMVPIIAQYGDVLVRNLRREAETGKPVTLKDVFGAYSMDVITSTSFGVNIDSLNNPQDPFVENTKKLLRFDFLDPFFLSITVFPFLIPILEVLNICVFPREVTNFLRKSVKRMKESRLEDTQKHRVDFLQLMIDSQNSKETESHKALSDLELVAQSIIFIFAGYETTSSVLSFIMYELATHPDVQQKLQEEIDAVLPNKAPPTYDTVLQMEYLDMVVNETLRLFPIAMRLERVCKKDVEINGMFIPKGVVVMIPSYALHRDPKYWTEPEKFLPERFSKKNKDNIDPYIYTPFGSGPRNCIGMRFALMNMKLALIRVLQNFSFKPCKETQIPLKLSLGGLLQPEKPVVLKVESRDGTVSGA
T1 sequence (P33261 whole entry): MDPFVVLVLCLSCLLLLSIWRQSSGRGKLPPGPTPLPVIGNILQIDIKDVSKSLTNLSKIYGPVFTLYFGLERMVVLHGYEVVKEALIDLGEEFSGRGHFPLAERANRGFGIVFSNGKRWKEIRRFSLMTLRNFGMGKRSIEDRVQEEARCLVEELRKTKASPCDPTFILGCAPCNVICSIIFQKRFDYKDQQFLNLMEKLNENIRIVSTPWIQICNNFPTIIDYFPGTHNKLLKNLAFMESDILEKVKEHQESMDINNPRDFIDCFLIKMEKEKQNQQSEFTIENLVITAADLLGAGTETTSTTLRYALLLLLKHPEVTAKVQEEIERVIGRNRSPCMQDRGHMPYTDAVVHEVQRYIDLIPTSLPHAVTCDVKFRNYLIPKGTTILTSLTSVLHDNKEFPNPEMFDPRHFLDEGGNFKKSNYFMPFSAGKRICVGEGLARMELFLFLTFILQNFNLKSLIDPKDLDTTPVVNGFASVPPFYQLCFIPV
Alpha-2B adrenergic receptor, sequence (P18089 whole entry): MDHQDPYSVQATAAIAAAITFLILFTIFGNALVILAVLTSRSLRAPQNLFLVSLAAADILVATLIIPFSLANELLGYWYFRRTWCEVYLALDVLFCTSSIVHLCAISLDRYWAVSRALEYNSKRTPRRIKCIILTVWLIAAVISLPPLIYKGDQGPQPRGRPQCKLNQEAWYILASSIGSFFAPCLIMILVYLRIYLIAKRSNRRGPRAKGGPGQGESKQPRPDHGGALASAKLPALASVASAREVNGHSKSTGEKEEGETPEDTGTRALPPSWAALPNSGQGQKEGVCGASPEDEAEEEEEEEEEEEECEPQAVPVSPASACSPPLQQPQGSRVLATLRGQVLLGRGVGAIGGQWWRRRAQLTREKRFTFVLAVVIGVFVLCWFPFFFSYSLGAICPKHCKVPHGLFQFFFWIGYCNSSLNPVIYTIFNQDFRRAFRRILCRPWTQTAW
D(3) dopamine receptor, sequence (P35462 whole entry): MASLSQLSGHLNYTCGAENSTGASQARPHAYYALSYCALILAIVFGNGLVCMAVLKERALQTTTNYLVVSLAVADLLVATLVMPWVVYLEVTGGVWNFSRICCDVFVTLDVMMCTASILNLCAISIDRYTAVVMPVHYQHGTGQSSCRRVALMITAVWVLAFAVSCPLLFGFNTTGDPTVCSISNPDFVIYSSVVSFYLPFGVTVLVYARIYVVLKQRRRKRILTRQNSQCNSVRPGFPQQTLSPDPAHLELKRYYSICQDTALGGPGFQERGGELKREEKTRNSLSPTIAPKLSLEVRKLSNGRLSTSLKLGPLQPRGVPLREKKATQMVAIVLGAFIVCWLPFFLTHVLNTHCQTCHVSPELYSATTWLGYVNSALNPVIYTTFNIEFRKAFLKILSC
D(4) dopamine receptor, sequence (P21917 whole entry): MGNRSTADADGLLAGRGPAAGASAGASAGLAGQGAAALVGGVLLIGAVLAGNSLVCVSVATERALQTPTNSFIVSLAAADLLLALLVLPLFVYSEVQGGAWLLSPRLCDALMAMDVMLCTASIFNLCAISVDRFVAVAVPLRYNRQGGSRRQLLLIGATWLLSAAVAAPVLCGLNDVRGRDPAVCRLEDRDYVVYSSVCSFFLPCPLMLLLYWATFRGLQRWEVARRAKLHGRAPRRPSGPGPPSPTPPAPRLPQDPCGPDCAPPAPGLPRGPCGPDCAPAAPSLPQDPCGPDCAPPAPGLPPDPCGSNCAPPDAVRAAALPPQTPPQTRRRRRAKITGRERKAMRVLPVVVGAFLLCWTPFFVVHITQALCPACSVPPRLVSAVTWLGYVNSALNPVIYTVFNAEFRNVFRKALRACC
Alpha-2C adrenergic receptor, sequence (P18825 whole entry): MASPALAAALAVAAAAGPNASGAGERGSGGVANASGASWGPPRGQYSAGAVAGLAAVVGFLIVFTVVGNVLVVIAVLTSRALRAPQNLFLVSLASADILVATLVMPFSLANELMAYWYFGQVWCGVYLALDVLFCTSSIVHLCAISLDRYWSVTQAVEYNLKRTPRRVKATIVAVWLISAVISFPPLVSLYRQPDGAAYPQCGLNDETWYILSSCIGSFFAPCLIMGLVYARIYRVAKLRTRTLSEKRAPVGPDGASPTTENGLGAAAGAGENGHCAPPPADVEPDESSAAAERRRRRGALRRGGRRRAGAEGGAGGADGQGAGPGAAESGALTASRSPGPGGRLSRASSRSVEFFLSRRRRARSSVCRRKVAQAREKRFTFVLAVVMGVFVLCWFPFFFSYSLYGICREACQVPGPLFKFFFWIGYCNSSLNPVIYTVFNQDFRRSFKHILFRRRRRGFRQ
5-hydroxytryptamine receptor 7, sequence (P34969 whole entry): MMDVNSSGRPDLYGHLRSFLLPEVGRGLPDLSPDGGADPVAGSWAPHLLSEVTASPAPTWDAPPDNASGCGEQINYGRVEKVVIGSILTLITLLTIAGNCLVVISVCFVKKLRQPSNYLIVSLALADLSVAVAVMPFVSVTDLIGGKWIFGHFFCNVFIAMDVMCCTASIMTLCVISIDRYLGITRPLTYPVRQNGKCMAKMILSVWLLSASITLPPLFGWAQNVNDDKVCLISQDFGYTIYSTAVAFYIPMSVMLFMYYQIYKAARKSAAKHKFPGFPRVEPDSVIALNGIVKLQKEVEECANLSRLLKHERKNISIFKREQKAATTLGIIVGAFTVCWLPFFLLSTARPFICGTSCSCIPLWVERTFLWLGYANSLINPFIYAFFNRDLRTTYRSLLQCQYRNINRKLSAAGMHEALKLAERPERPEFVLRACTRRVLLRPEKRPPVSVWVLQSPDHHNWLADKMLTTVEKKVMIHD
Alpha-1B adrenergic receptor, sequence (P35368 whole entry): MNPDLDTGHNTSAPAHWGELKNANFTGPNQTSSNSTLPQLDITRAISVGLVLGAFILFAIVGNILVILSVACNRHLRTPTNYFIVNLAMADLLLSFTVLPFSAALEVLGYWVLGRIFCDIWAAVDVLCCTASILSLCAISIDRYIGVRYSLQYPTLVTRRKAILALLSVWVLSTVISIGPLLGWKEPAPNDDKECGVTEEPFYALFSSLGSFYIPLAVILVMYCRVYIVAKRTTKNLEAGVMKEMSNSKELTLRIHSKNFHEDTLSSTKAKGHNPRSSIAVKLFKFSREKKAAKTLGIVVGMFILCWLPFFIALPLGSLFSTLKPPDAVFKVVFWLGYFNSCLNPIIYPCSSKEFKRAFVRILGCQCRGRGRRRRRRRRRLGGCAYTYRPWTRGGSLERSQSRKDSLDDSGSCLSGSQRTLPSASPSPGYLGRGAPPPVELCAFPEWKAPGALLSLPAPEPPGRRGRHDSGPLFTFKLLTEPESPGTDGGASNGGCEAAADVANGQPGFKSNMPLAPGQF
Histamine H1 receptor, sequence (P35367 whole entry): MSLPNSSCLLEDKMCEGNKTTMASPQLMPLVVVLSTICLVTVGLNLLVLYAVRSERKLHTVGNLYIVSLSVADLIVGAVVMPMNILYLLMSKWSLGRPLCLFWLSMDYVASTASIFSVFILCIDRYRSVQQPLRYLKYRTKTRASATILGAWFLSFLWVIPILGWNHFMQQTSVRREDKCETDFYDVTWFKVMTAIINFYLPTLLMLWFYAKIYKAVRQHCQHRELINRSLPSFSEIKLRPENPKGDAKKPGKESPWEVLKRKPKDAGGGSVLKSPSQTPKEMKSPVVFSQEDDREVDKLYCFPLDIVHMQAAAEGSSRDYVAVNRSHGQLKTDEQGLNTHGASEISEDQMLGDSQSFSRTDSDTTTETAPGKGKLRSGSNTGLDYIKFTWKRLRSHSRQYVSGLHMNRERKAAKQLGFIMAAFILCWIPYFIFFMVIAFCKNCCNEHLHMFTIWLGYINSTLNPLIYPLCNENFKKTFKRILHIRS
D(1B) dopamine receptor, sequence (P21918 whole entry): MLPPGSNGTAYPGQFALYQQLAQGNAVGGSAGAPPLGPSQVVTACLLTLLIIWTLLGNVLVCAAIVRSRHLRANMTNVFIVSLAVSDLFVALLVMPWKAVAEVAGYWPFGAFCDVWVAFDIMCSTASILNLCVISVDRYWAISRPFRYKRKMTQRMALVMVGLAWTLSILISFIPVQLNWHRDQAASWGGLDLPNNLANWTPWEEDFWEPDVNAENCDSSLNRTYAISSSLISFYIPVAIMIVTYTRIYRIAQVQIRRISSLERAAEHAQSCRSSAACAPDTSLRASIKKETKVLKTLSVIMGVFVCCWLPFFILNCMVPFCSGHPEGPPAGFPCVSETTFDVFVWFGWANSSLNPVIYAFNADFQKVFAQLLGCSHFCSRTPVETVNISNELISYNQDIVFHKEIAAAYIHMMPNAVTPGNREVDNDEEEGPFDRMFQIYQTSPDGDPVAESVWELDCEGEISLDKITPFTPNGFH

The term Ki denotes the equilibrium dissociation constant of an inhibitor or competing ligand from its target. For `[2H]c1c([2H])c([2H])c([C@@H]2C[C@@H](N3CCN(C([2H])([2H])[2H])C(C)(C)C3)c3cc(Cl)ccc32)c([2H])c1[2H]`, the Drug metabolism result (on Cytochrome P450 2C19 [1]; at Cytochrome P450 3A4 [2]; in data set [4]; in [5]) was “Metabolite_Detected” in each case. Also, the Ki in data set [3] was determined as 89 nM; in [6], 170 nM; in [7] it was 0.4 nM; in [8], 1.5 nM; in [9], 3.8 nM; on D(3) dopamine receptor, 16 nM. Moreover, the Ki was 6.8 nM on D(4) dopamine receptor; 0.37 nM at D(1B) dopamine receptor; 3.4 nM in data set [10]; 2.9 nM in [11]; 9.5 nM in data set [12]; 560 nM in data set [13]. The Ki in [14] was found to be 47 nM; in [15], 9.7 nM; in data set [16] it was 4200 nM; at Histamine H1 receptor, 4 nM.

With `[2H]c1c([2H])c([2H])c([C@@H]2C[C@@H](N3CCN(C)C(C)(C)C3)c3cc(Cl)ccc32)c([2H])c1[2H]`, the Drug metabolism result (at Cytochrome P450 2C19 [1]; on Cytochrome P450 3A4 [2]; in [4]; in data set [5]) was “Metabolite_Detected” throughout.

Take `[2H]c1c([2H])c([2H])c([C@@H]2C[C@@H](N3CCNC(C)(C)C3)c3cc(Cl)ccc32)c([2H])c1[2H]`: the Ki came to 420 nM in data set [3]; 660 nM in [6]; 0.84 nM in [17]; 0.39 nM in data set [7]; 1.1 nM in data set [8]; 0.73 nM in data set [18]. Also, the Ki in data set [9] was determined as 11 nM; at D(1A) dopamine receptor, 1 nM; on D(2) dopamine receptor it was 11 nM; at D(3) dopamine receptor it was 59 nM; on D(4) dopamine receptor it was 11 nM; at D(1B) dopamine receptor, 0.67 nM. The Ki in data set [10] is 13 nM; in data set [11], 11 nM; in data set [12] it was 35 nM; in data set [13], 2500 nM; in [14] it was 490 nM; in data set [15], 160 nM. For the same compound, the Ki worked out at 510 nM in data set [16] and 6.6 nM at Histamine H1 receptor.

As for `CN1CCN([C@@H]2C[C@@H](c3ccccc3)c3ccc(Cl)cc32)CC1(C)C` [ZICRONAPINE], the Drug metabolism entry on Cytochrome P450 2C19 [19], on Cytochrome P450 2C19 [20], on Cytochrome P450 2C19 [21], at Cytochrome P450 3A4 [22], on Cytochrome P450 3A4 [23] and at Cytochrome P450 3A4 [24] was “Metabolite_Detected” in each case.
